Several values for one entry are separate records, joined by “and”; a condition that tells them apart may be missing. Equal entries are not always repeated.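 48-hour exposure; five concentrations; linearly interpolated endpoints. Here, GI50 denotes the concentration required for 50% inhibition of growth.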 Activity calls are given as the source filed them. No stated cut-off is given here; in the data, active = GI50 up to about 1.1 µM and inactive = higher.
How the values were obtained:
Test in all cases: NCI tumour cell line growth inhibition, 48 h
RXF 631 = system: RXF 631
SK-OV-3 = system: SK-OV-3
M14 = system: M14
SF-295 = system: SF-295
HL-60 = system: HL-60
TK-10 = system: TK-10
M19-MEL = system: M19-MEL
EKVX = system: EKVX
SF-268 = system: SF-268
Malme-3M = system: Malme-3M
SNB-19 = system: SNB-19
LXFL 529 = system: LXFL 529
MOLT-4 = system: MOLT-4
NCI-H522 = system: NCI-H522
SW-620 = system: SW-620
SNB-78 = system: SNB-78
K562 = system: K562
U-251 = system: U-251
XF498 = system: XF498
DLD-1 = system: DLD-1
COLO 205 = system: COLO 205
CAKI-1 = system: CAKI-1
UO-31 = system: UO-31
RPMI-8226 = system: RPMI-8226
786-0 = system: 786-0
HOP-62 = system: HOP-62
OVCAR-4 = system: OVCAR-4
KM-20L2 = system: KM-20L2
NCI-H226 = system: NCI-H226
CCRF-CEM = system: CCRF-CEM
HCT-15 = system: HCT-15
OVCAR-5 = system: OVCAR-5
HOP-92 = system: HOP-92
HT-29 = system: HT-29
A498 = system: A498
ACHN = system: ACHN
UACC-62 = system: UACC-62
SN12C = system: SN12C
UACC-257 = system: UACC-257
SK-MEL-5 = system: SK-MEL-5
DMS-273 = system: DMS-273
HCC 2998 = system: HCC 2998
IGROV-1 = system: IGROV-1
NCI-H23 = system: NCI-H23
OVCAR-3 = system: OVCAR-3
A549 = system: A549
LOX IMVI = system: LOX IMVI
OVCAR-8 = system: OVCAR-8
SF-539 = system: SF-539
NCI-H460 = system: NCI-H460
KM12 = system: KM12
HCT-116 = system: HCT-116
RXF 393 = system: RXF 393
SR = system: SR
SNB-75 = system: SNB-75
SK-MEL-28 = system: SK-MEL-28
DMS-114 = system: DMS-114
SK-MEL-2 = system: SK-MEL-2

CCOC(=O)c1cc(/C=C/C(C)=C/C(=O)OC)n(C)c1C
GI50 (RXF 631): > 100 µM (inactive)
GI50 (SK-OV-3): > 100 µM (inactive)
GI50 (M14): > 100 µM (inactive)
GI50 (SF-295): > 100 µM (inactive)
GI50 (HL-60): 23.9 µM (inactive)
GI50 (TK-10): > 100 µM (inactive)
GI50 (M19-MEL): > 100 µM (inactive)
GI50 (EKVX): > 100 µM (inactive)
GI50 (SF-268): 52.4 µM (inactive)
GI50 (Malme-3M): > 100 µM (inactive)
GI50 (SNB-19): > 100 µM (inactive)
GI50 (LXFL 529): 91.6 µM (inactive)
GI50 (MOLT-4): 41.7 µM (inactive)
GI50 (NCI-H522): 76 µM (inactive)
GI50 (SW-620): > 100 µM (inactive)
GI50 (SNB-78): > 100 µM (inactive)
GI50 (K562): 25.8 µM (inactive)
GI50 (U-251): > 100 µM (inactive)
GI50 (XF498): 93.1 µM (inactive)
GI50 (DLD-1): 67.8 µM (inactive)
GI50 (COLO 205): > 100 µM (inactive)
GI50 (CAKI-1): > 100 µM (inactive)
GI50 (UO-31): > 100 µM (inactive)
GI50 (RPMI-8226): 36.2 µM (inactive)
GI50 (786-0): > 100 µM (inactive)
GI50 (HOP-62): > 100 µM (inactive)
GI50 (OVCAR-4): 60.7 µM (inactive)
GI50 (KM-20L2): 74 µM (inactive)
GI50 (NCI-H226): > 100 µM (inactive)
GI50 (CCRF-CEM): 61.5 µM (inactive)
GI50 (HCT-15): 63.8 µM
GI50 (OVCAR-5): > 100 µM (inactive)
GI50 (HOP-92): > 100 µM (inactive)
GI50 (HT-29): 40 µM (inactive)
GI50 (A498): > 100 µM (inactive)
GI50 (ACHN): 45.2 µM (inactive)
GI50 (UACC-62): 50.6 µM (inactive)
GI50 (SN12C): > 100 µM (inactive)
GI50 (UACC-257): 78.2 µM (inactive)
GI50 (SK-MEL-5): 52.1 µM (inactive)
GI50 (DMS-273): > 100 µM (inactive)
GI50 (HCC 2998): 92.5 µM (inactive)
GI50 (IGROV-1): > 100 µM (inactive)
GI50 (NCI-H23): > 100 µM (inactive)
GI50 (OVCAR-3): 58.3 µM (inactive)
GI50 (A549): > 100 µM (inactive)
GI50 (LOX IMVI): > 100 µM (inactive)
GI50 (OVCAR-8): > 100 µM (inactive)
GI50 (SF-539): 77.8 µM (inactive)
GI50 (NCI-H460): > 100 µM (inactive)
GI50 (KM12): 59.2 µM (inactive)

O=C1CCCC(=O)N1CCc1c[nH]c2ccccc12
GI50 (RXF 631): > 100 µM (inactive)
GI50 (SK-OV-3): > 100 µM (inactive)
GI50 (HCT-116): > 100 µM (inactive)
GI50 (M14): > 100 µM (inactive)
GI50 (SF-295): > 100 µM (inactive)
GI50 (HL-60): > 100 µM (inactive)
GI50 (TK-10): > 100 µM (inactive)
GI50 (M19-MEL): > 100 µM (inactive)
GI50 (EKVX): > 100 µM (inactive)
GI50 (SF-268): > 100 µM (inactive)
GI50 (Malme-3M): > 100 µM (inactive)
GI50 (SNB-19): > 100 µM (inactive)
GI50 (LXFL 529): > 100 µM (inactive)
GI50 (MOLT-4): > 100 µM (inactive)
GI50 (RXF 393): > 100 µM (inactive)
GI50 (SW-620): > 100 µM (inactive)
GI50 (SNB-78): > 100 µM (inactive)
GI50 (SR): > 100 µM (inactive)
GI50 (K562): > 100 µM (inactive)
GI50 (U-251): > 100 µM (inactive)
GI50 (XF498): > 100 µM (inactive)
GI50 (DLD-1): > 100 µM (inactive)
GI50 (CAKI-1): > 100 µM (inactive)
GI50 (UO-31): > 100 µM (inactive)
GI50 (786-0): > 100 µM (inactive)
GI50 (HOP-62): > 100 µM (inactive)
GI50 (OVCAR-4): > 100 µM (inactive)
GI50 (KM-20L2): > 100 µM (inactive)
GI50 (NCI-H226): 80.9 µM (inactive)
GI50 (SNB-75): > 100 µM (inactive)
GI50 (CCRF-CEM): > 100 µM (inactive)
GI50 (OVCAR-5): > 100 µM (inactive)
GI50 (HOP-92): > 100 µM (inactive)
GI50 (HT-29): > 100 µM (inactive)
GI50 (SK-MEL-28): > 100 µM (inactive)
GI50 (A498): 77.3 µM (inactive)
GI50 (ACHN): > 100 µM (inactive)
GI50 (UACC-62): > 100 µM (inactive)
GI50 (SN12C): > 100 µM (inactive)
GI50 (UACC-257): > 100 µM (inactive)
GI50 (SK-MEL-5): > 100 µM (inactive)
GI50 (DMS-273): > 100 µM (inactive)
GI50 (HCC 2998): > 100 µM (inactive)
GI50 (IGROV-1): > 100 µM (inactive)
GI50 (DMS-114): > 100 µM (inactive)
GI50 (NCI-H23): > 100 µM (inactive)
GI50 (OVCAR-3): > 100 µM (inactive)
GI50 (A549): > 100 µM (inactive)
GI50 (OVCAR-8): > 100 µM (inactive)
GI50 (SF-539): > 100 µM (inactive)
GI50 (NCI-H460): > 100 µM (inactive)
GI50 (SK-MEL-2): > 100 µM (inactive)
GI50 (KM12): > 100 µM (inactive)

Cc1cc(Cl)cc2c1NC(=O)C2(O)C(C(=O)c1ccccc1)c1ccccc1 (configuration not stated)
GI50 (RXF 631): 37.8 µM (inactive) and 70.1 µM (inactive)
GI50 (SK-OV-3): 56.6 µM (inactive)
GI50 (HCT-116): 23.4 µM (inactive)
GI50 (SF-295): 45.7 µM (inactive) and 67.8 µM (inactive)
GI50 (HL-60): 20.1 µM (inactive)
GI50 (TK-10): > 100 µM (inactive) and 84.7 µM (inactive)
GI50 (M19-MEL): 3.4 µM (inactive)
GI50 (EKVX): 49.8 µM (inactive) and 67.8 µM (inactive)
GI50 (SNB-19): 77.6 µM (inactive)
GI50 (MOLT-4): 16 µM (inactive)
GI50 (NCI-H522): 36.5 µM (inactive)
GI50 (SW-620): 44.7 µM (inactive) and 76 µM (inactive)
GI50 (SNB-78): 41.8 µM (inactive) and 56.6 µM (inactive)
GI50 (K562): 33.5 µM (inactive)
GI50 (XF498): 36.4 µM (inactive) and 28.7 µM (inactive)
GI50 (DLD-1): 53.8 µM (inactive) and 42.3 µM (inactive)
GI50 (RPMI-8226): 17.4 µM (inactive) and 22.9 µM (inactive)
GI50 (HOP-62): 82 µM (inactive) and 47.3 µM (inactive)
GI50 (OVCAR-4): 20.4 µM (inactive) and 35.5 µM (inactive)
GI50 (KM-20L2): 88.9 µM (inactive)
GI50 (NCI-H226): 36.4 µM (inactive) and 27.3 µM (inactive)
GI50 (SNB-75): 24.7 µM (inactive) and 21.7 µM (inactive)
GI50 (CCRF-CEM): 26.7 µM (inactive)
GI50 (HCT-15): 71.3 µM and 46.7 µM
GI50 (OVCAR-5): > 100 µM (inactive)
GI50 (HT-29): 35.2 µM (inactive) and 39.8 µM (inactive)
GI50 (A498): 27.7 µM (inactive)
GI50 (UACC-62): 17.3 µM (inactive)
GI50 (SK-MEL-5): 21.2 µM (inactive)
GI50 (DMS-273): 55.8 µM (inactive)
GI50 (HCC 2998): 23.9 µM (inactive) and 29.9 µM (inactive)
GI50 (IGROV-1): 26.2 µM (inactive)
GI50 (DMS-114): 22.9 µM (inactive) and 25.6 µM (inactive)
GI50 (NCI-H23): 52.5 µM (inactive) and 38.6 µM (inactive)
GI50 (LOX IMVI): 19.3 µM (inactive) and 33 µM (inactive)
GI50 (SF-539): 21 µM (inactive)
GI50 (SK-MEL-2): 44.8 µM (inactive) and 32.3 µM (inactive)
GI50 (KM12): 47.6 µM (inactive) and 60.4 µM (inactive)
